# Measured values taken from patent publication US20170319572A1, “COMBINATION DRUG TREATMENT FOR HEPATITIS C INFECTION” (JANSSEN PHARMACEUTICALS, INC., priority 2015, published 2017).
# “Also recorded” adds a separate entry of the source.
# Assays:
# [1] = Drug-drug interaction study in humans (Phase-1, open-label, two-group, fixed-sequence, PK); settings: for increase of exposure caused by SMV: co-administration of SMV
# Procedure: A drug-drug interaction study (DDI) study is a study designed to investigate whether a drug alters the pharmacokinetics of another drug or drugs or their metabolites.
# Compound (III)—Subjects received 800 mg of Compound (III) once daily from Days 1-3, Days 11-13, and Days 21-23. PK blood samples for determination of Compound (III) and metabolite concentrations were collected in reference to the Day 3, Day 13, and Day 23 doses.
# Simeprevir—Subjects received 150 mg of Simeprevir (SMV) once daily from Days 4-23. PK blood samples for determination of SMV concentrations were collected in reference to the Day 10, Day 13, Day 20, and Day 23 doses.
# Odalasvir—Subjects received a loading dose of 150 mg on Day 14, and 50 mg of Odalasvir once daily from Days 15-23. PK blood samples for determination of Odalasvir concentrations were collected in reference to the Day 20 and Day 23 doses.
# Compound (III)—Subjects received 800 mg of Compound (III) once daily from Days 1-3, Days 11-13 and Days 21-23. PK blood samples for determination of Compound (III) and metabolite concentrations were collected in reference to the Day 3, Day 13, and Day 23 doses.
# Simeprevir—Subjects receive 150 mg of SMV once daily from Days 4-23. PK blood samples for determination of SMV concentrations were collected in reference to the Day 20 and Day 23 doses.
# Odalasvir—Subjects receive a loading dose of 150 mg on Day 4, and 50 mg of Odalasvir once daily from Days 5-23. PK blood samples for determination of Odalasvir concentrations were collected in reference to the Day 10, Day 13, Day 20, and Day 23 doses.
# This drug-drug interaction study was intended to assess the safety and tolerability of the described drug combinations at pre-defined time points throughout the study. Study completion/follow-up visit(s) were performed 7 and 28 days after completion of the last study assessment.
# A primary objective was to evaluate the effect of multiple oral doses of Odalasvir (alone), Simeprevir (alone), and Odalasvir and Simeprevir on the multiple oral dose PK of Compound (III) (and certain metabolites thereof, such as the major metabolites in systemic circulation) in healthy volunteers. Other objectives were to evaluate the safety and tolerability of multiple oral doses of Compound (III) when administered alone and in combination with single and multiple oral doses of Odalasvir and/or Simeprevir in healthy volunteers; to determine the potential effect of Compound of Compound (III) and/or Odalasvir on the steady-state PK of Simeprevir in healthy volunteers; to determine the potential effect of Compound of Compound (III) and/or Simeprevir on the steady state PK of Odalasvir in healthy volunteers.
# Various other PK parameters were estimated including: Clast, t1/2, Tmax, Tlast, CL/F, Vz/F, and λz.
# The following daily doses were employed:
# Odalasvir: 150 mg loading dose; 50 mg for the remainder of the study period.
# Pgp = Pgp (Homo sapiens, UniProt P08183); settings: cited from earlier work
# MRP2 = MRP2 (Homo sapiens, UniProt Q92887); settings: MRP2/3; cited from earlier work
# [2] = PK analysis of fixed dose combinations vs single agents, single dose in healthy volunteers; format: in vivo, human; settings: Arm 2 (FDC02) vs reference (Arm 1); 90% CI in the row below
# Procedure: SMV (100 mg), ODV (50 mg), and Compound (III) (800 mg) were administered as three different formulations or together as single doses in vivo to healthy volunteers. The arms of the study included: • Arm 1 (Reference Arm): Single oral doses of single agents, one SMV 100-mg capsule, one ODV 50-mg tablet as granule layered solid dispersion with copovidone and poloxamers, and two Compound (III) 400-mg tablets, administered together. • Arm 2: Single oral dose of fixed dose combination (FDC02): SMV 100 mg+ODV 50 mg as a spray dried solid dispersion with HPMC-AS L in a ratio ODV/HPMC-AS L 1/1 w/w+Compound (III) 800 mg • Arm 3: Single oral dose of fixed dose combination (FDC04): SMV 100 mg+ODV 50 mg as a spray dried solid dispersion with HPMC-AS L in a ratio ODV/HPMC-AS L 1/3 w/w+Compound (III) 800 mg • Arm 4: Single oral dose of fixed dose combination (FDC01): SMV 100 mg+ODV 50 mg as a spray dried solid dispersion with copovidone and poloxamers+Compound (III) 800 mg
# PK parameters, including Cmax, tmax, AUClast, and AUC∞ were measured for Compound (III), ODV, SMV, and metabolites Compound A-I and Compound A-3 for each Arm of the study. Arms that included fixed dose combinations (FDC) (Arm 2, Arm 3, and Arm 4) were then compared to a single oral dose (Arm 1, the reference Arm). […]
# MRP3 = MRP3 (Homo sapiens, UniProt O15438); settings: MRP2/3; cited from earlier work
# [3] = Phase 2a open-label combination study, pharmacokinetics and safety; format: in vivo, human; settings: for change of exposure on reducing ODV dosing from QD to QOD: 50 mg
# Procedure: A randomized, Phase 2a, open-label study was carried out to evaluate the safety, pharmacokinetics and efficacy of the combination of Compound (III), Odalasvir and Simeprevir in Genotype 1 treatment-naïve subjects with chronic hepatitis C. Other treatment-naïve subjects included Genotype 2, 3, 4, 5 and 6. The aim of the study was to determine the efficacy, pharmacokinetics (PK), and safety of Compound (III)+Odalasvir±SMV in HCV-infected subjects. […] Efficacy, PK and safety evaluations were conducted during and through 24 weeks post dosing. Up to 15 cohorts were enrolled; data was generated from cohorts that have completed dosing.
# BSEP = BSEP (Homo sapiens, UniProt O95342); settings: cited from earlier work
# Sequence of BSEP (O95342 whole entry): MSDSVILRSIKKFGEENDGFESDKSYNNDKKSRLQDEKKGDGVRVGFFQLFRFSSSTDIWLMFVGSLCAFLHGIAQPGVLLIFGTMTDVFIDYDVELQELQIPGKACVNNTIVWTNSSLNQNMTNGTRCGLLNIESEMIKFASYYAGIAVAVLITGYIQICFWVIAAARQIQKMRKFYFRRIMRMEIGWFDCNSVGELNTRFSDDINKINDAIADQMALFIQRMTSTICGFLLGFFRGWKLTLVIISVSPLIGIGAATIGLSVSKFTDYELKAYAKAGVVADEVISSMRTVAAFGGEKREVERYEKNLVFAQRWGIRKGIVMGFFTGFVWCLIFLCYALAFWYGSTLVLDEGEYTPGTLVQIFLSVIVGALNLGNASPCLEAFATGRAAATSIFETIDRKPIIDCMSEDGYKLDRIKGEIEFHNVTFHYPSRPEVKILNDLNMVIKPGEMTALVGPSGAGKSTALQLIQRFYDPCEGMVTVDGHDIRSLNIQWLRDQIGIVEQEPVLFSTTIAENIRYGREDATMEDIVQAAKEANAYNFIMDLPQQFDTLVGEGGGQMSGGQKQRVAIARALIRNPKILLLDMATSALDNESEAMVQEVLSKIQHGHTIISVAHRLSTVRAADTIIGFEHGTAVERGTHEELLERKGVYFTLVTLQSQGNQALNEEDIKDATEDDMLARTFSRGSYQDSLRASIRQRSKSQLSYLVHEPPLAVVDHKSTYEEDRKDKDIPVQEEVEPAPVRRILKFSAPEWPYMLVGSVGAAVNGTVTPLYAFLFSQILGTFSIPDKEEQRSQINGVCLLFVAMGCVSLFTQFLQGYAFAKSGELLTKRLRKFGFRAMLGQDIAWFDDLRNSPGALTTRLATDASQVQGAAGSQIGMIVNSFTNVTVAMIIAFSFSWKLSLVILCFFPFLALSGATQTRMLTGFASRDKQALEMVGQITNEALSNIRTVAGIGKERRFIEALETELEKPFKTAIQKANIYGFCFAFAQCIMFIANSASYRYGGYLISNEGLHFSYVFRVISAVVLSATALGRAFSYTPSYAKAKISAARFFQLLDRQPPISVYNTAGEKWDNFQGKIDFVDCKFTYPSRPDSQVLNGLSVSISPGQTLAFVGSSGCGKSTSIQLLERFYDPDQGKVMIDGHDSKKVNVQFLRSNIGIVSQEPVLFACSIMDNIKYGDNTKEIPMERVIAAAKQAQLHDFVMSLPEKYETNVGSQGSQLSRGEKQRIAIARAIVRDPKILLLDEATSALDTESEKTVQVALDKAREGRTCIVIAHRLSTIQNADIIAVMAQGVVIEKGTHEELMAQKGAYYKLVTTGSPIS
# Sequence of MRP2 (Q92887 whole entry): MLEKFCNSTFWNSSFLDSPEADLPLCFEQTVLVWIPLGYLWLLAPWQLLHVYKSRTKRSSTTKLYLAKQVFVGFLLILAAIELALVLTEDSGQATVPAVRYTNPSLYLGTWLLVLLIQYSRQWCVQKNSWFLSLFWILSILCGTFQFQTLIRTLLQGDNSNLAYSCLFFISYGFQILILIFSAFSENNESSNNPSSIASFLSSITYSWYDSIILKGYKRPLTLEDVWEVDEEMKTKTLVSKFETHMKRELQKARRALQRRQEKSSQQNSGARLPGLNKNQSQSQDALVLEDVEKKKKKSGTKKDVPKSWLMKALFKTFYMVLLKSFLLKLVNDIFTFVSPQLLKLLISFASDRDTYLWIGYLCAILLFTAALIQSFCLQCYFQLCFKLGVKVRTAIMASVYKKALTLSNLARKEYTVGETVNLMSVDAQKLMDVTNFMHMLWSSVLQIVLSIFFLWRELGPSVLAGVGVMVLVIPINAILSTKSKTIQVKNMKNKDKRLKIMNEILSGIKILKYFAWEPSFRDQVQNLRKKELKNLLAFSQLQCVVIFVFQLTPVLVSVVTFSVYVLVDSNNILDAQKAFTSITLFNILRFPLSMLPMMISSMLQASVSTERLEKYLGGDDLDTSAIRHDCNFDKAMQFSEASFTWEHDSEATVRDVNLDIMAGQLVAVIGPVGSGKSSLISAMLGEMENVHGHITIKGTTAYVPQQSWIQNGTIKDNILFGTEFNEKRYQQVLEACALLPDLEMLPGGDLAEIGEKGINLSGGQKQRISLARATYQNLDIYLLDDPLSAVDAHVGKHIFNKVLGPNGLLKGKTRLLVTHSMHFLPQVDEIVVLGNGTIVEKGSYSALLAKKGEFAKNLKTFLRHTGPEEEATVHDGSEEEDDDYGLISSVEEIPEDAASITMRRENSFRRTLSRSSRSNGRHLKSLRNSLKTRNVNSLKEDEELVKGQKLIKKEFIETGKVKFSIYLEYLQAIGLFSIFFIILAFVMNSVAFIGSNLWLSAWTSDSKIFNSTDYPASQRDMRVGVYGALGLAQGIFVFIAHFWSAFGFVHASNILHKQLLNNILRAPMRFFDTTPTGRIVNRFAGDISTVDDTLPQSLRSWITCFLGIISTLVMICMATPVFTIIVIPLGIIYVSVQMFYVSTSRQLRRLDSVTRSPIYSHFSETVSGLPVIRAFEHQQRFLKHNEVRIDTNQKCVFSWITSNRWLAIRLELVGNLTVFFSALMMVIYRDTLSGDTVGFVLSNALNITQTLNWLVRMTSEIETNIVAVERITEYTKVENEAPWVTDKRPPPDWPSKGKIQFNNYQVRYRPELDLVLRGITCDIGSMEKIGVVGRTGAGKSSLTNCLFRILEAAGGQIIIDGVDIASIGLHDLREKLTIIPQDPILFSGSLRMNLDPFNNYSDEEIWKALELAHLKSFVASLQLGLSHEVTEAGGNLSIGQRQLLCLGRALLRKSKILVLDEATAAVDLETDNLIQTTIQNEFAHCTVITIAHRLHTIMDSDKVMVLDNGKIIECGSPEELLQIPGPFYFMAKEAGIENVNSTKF
# Sequence of MRP3 (O15438 whole entry): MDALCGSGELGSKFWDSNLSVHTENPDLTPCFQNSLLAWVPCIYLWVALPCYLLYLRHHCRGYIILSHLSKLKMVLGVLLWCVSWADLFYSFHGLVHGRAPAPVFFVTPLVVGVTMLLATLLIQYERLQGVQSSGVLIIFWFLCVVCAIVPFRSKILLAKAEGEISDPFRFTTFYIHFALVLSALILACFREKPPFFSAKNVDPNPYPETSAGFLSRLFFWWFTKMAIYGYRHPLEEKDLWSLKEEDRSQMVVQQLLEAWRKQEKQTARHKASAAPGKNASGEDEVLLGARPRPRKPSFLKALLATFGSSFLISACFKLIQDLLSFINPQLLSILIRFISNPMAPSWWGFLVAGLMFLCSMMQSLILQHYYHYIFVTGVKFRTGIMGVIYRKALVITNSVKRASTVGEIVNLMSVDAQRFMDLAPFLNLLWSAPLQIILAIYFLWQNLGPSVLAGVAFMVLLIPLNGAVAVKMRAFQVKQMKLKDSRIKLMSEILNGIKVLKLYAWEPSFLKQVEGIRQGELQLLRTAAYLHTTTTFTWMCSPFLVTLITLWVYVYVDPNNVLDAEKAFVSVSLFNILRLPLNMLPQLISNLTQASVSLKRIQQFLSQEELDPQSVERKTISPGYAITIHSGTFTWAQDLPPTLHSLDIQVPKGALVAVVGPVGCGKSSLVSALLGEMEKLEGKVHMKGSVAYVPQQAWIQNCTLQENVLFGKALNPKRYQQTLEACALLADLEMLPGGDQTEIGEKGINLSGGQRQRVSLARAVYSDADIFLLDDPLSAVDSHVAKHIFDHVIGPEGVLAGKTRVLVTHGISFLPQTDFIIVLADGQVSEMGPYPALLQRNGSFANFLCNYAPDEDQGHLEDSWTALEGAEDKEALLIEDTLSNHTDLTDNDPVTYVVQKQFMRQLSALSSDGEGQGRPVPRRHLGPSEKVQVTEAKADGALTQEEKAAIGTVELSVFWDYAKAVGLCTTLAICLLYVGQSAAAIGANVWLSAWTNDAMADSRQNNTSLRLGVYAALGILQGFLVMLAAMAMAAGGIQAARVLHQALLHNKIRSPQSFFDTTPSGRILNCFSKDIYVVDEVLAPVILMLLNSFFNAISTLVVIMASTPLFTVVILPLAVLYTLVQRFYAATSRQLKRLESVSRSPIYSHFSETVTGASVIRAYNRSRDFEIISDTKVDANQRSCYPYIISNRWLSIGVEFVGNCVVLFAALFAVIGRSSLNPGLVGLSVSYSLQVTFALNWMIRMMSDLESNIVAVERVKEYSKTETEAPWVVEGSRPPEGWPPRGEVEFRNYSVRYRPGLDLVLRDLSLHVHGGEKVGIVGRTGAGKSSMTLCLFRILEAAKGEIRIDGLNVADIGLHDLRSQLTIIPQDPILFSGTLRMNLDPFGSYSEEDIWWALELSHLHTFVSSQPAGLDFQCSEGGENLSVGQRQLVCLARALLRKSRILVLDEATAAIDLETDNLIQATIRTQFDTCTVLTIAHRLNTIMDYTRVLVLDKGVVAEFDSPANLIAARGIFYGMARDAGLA
compound,measurement,setting,value
"CC(C)OC(=O)[C@H](C)N[P@](=O)(OC[C@@]1(F)O[C@@H](n2ccc(=O)[nH]c2=O)[C@](C)(O)[C@@H]1O)Oc1ccccc1 [Compound (III), isopropyl ((S)-(((2S,3S,4R,5R)-5-(2,4-dioxo-3,4-dihydropyrimidin-1 (2H)-yl)-2-fluoro-3,4-dihydroxy-4-methyltetrahydrofuran-2-yl)methoxy)(phenoxy)phosphoryl)-L-alaninate]",increase of exposure caused by Odalasvir,"[1]; DDI study, co-administration of Odalasvir",4 ×
same,increase of exposure caused by SMV,[1]; DDI study,3 ×
same,Cmax,"[1]; Group 1, Day 13, Compound (III) 800 mg QD + SMV 150 mg QD",376.2 ng/mL
same,Cmax,"[1]; Group 1, Day 23, Compound (III) 800 mg + SMV 150 mg + ODV 50 mg QD",746.6 ng/mL
same,Cmax,"[1]; Group 2, Day 3, Compound (III) 800 mg QD alone",150.7 ng/mL
same,Cmax,"[1]; Group 2, Day 13, (Compound (III) + SMV) as printed in Table 1",515.9 ng/mL
same,Cmax,"[1]; Group 2, Day 23, Compound (III) 800 mg + SMV 150 mg + ODV 50 mg QD",949.6 ng/mL
same,increase of exposure in the combination,"[1]; both, human, in vivo",7-8 times
same,Cmax,"[1]; healthy volunteers, Group 1, Day 3, Compound (III) 800 mg QD alone",161.6 ng/mL
same,bioavailability with SMV and ODV co-administered compared to Compound (III) alone,[1]; human subjects,approximately 8 fold
same,in vitro inhibition of Pgp,Pgp,no in vitro inhibition
"COC(=O)N[C@H](C(=O)N1[C@H](c2nc3cc(-c4cc5ccc4CCc4ccc(c(-c6ccc7[nH]c([C@@H]8C[C@@H]9CCCC[C@@H]9N8C(=O)[C@@H](NC(=O)OC)C(C)C)nc7c6)c4)CC5)ccc3[nH]2)C[C@@H]2CCCC[C@@H]21)C(C)C [ODV, methyl [(2S)-1-[(2S,3aS,7aS)-2-[6-[11-[2-[(2S,3aS,7aS)-1-[(2S)-2-[(methoxycarbonyl)amino]-3-methylbutanoyl]octahydro-1H-indol-2-yl]-1H-benzimidazol-6-yl]tricyclo[8.2.2.2^4,7]hexadeca-1(12),4,6,10,13,15-hexaen-5-yl]-1H-benzimidazol-2-yl]octahydro-1H-indol-1-yl]-3-methyl-1-oxobutan-2-yl]carbamate]",inhibition of MRP2,MRP2,no inhibition
same,"Least Square Means Ratio, Cmax",[2],81.00%
same,"increase of exposure, effect of the three Compounds","[1]; DDI study, Compound (III) + SMV + Odalasvir together",1.5 ×
same,effect of Compound (III) on exposure/bioavailability,"[1]; DDI study, co-administration of Compound (III)",no apparent effect; also recorded: does not alter the bioavailability
same,increase of exposure caused by SMV,[1]; DDI study,1.6 ×
same,increase of exposure in the combination,"[1]; human in vivo study (Example 1), three drugs combined",1.5 times
same,increase of exposure by SMV,[1]; human subjects,1.6 fold
same,inhibition of MRP3,MRP3,no inhibition
same,change of exposure on reducing ODV dosing from QD to QOD,[3],decreased ODV exposure proportionally
same,change of exposure on reducing ODV dosing from QD to QOD,[3]; listed as Odalasvir,decreased Odalasvir exposure proportionally
same,observed exposure in Cohort 1 / group (i),"[3]; Compound (III) 400 mg, ODV 50 mg QD, SMV 100 mg QD",higher than anticipated
same,inhibition of BSEP,BSEP,no inhibition
